{"source": "patent US20210330756A1", "about": "“Acetylation of Miro1” (University of South Carolina, priority 2020, published 2021)", "test_system": "distal axons and growth cones of DRG neurons", "experiment": "CALI of Mito-KR to ablate mitochondria in distal axons of DRG cultures", "type": "cell-based, rat", "description": "For this, we turned to chromophore-assisted light inactivation (CALI) to ablate mitochondria from distal axons of DRG cultures expressing mitochondrial-targeted Killer Red (Mito-KR) protein. CALI of KR protein generates reactive oxygen species (ROS) to ˜1,000-fold higher than the fluorescent emission eGFP generates (Sano et al., 2014). Increased ROS production upon CALI of Mito-KR protein leads to mitochondrial damage and ablation of mitochondrial function, including the axonal mitochondria targeted in our experiments (Shibuya and Tsujimoto, 2012; Spillane et al., 2013).\nFor mitochondrial ablation by CALI, DRG cultures expressing Mito-KR and BFP for 48 h were imaged with the same confocal microscope. Mito-KR was activated with an argon laser at 514 nm continuously for 30 s until there was no detectable signal (100% laser power). After activation, 50 μm of the distal axon shaft and the growth cone were imaged every 30 s over 16 min using 585- and 405-nm laser lines (13 and 15.3% power, respectively).\nVesicle trafficking was quantified using differential ImageJ Difference Tracker Plug-in (Andrews et al., 2010). 50-80-μm long unbranched axon segments at approximately the mid-region between growth cone and cell body were analyzed. Kymographs were generated using ImageJ Kymograph Plug-in. […] The distance between the growth tip at end of the post-CALI sequence and the pre-CALI baseline was measured using LAS-X software. Movement of ≥0.5 μm toward the axon shaft was counted as retracted. Fluorescence emission of the Mito-KR post-CALI was analyzed using ImageJ. For normalizing intensities across FRAP image sets, fluorescence intensity at each time point was scaled using the LAS-X FRAP module so that the residual fluorescence signal at t=0 min (post-bleach) was set at 0 and the prebleach intensity was set at 100% for each bleached ROI. For axon shaft FRAP analyses, each 50-μm bleached ROI was divided into […], and the fluorescence intensity recovery was measured as described above. […] A minimum of 75 unmyelinated axons was analyzed for each nerve. […]", "key": {"[1]": {"details": "laminin, TubA 10 μM 1 h or siRNA cotransfection, vs vehicle/siControl"}}, "data": [{"compound": "CN1CCc2c(c3ccccc3n2Cc2ccc(C(=O)NO)cc2)C1", "note": "[TubA, tubastatin]", "values": [{"measurement": "effect on MAG-Fc-dependent decrease in Mito-KR recovery after CALI", "setting": "MAG-Fc + 10 μM TubA", "result": "reversed"}, {"measurement": "growth cone retraction after CALI mitochondrial ablation", "setting": "[1]", "result": "majority of the TubA-treated cultures showed no growth cone retraction"}, {"measurement": "recovery of Mito-KR fluorescence in ROI after CALI", "setting": "[1]", "result": "significant recovery of mitochondrial fluorescence"}]}]}
